Measurements from US8044057B2, “Methods for suppressing an immune response or treating a proliferative disorder” (The United States of America as represented by the …, priority 2003, dated 2011).

Key:
STAT1 = assay: STAT1-driven luciferase reporter (GAS-luc) in A549 cells; type: cell-based, human; details: 100 mcM LY303511 1 hour before LPS/IFN-γ for 6 hours
Procedure: (§1) A549 cells were transiently transfected with a reporter vector expressing firefly luciferase driven by STAT1 (GAS-luc, Clontech), and incubated without or with 100 mcM LY303511, rapamycin, 200 ng/ml, or both, for 1 hour before addition of LPS/IFN-γ for 6 hours. STAT1 activity (luciferase activity) was measured in cell lysates (RLU). The data presented are triplicate samples ±SEM, and are representative of two independent experiments.
as §1, with “presented in FIG. 8” for “presented”, “samples±SEM,” for “samples ±SEM,”

PC-3 cells = assay: PC-3 prostate adenocarcinoma tumor growth in nude mice; type: in vivo, mouse
Procedure: FIG. 6A-6B are bar graphs showing that LY303511 inhibits the growth of prostate adenocarcinoma cells (PC-3) cells in nude mice. LY303511, 10 mg/kg/d was administered intraperitoneally to attenuate PC-3 tumor growth in nude mice. The degree of growth inhibition was proportional to the duration of treatment with LY303511. […] FIG. 6C is a graph of a Kaplan-Mieir survival analysis. The analysis includes the premise that an event happens when a tumor reaches 300 mm^3. The y-axis depicts the probability that tumor size is less than 300 mm^3.
The effect of LY303511 on tumor growth was assessed in vivo. Human prostate adenocarcinoma cells (PC-3 cells, ATCC No. CTL-1435) were culture in vitro 5 before harvesting and implantation. For each mouse, 1×10^6 cells in 20% Matrigel™ (matrix) were implanted by subcutaneous injection into the flank. Mice were subdivided into six groups of ten mice each. Treatment protocols were begun (Day 1) when tumors reached approximately 150 mm^3, and tumor volumes (=Caliper length×width^2/2) were measured for thirty days at the indicated time points. Data were expressed as the average tumor volume +/− SEM for each treatment group and time point. The data is shown both in FIG. 6A and 6B. (*p<0.05 by one way ANOVA for inter-group comparisons at each time point. FIG. 6C is a Kaplan-meier analysis, representing the probability that tumor volumes are less than 300 mm^3 at any given time point (p<0.001 by log-rank test for inter-group comparison).

A549 cells [1] = assay: BrDU incorporation (in situ ELISA) in A549 cells; type: cell-based, human; details: 24 hours, 0-200 μM LY303511 without or with rapamycin 200 ng/ml
A549 cells [2] = assay: KI-67 immunostaining in A549 cells; type: cell-based, human; details: 24 hours
Description: Slides were mounted in solution containing DAPI to stain nuclei. Photos were captured using equal laser intensity and gain.

O=c1cc(N2CCNCC2)oc2c(-c3ccccc3)cccc12 [LY303511, 2-(4-piperazinyl)-8-phenyl-4H-1-benzopyran-4-one]
STAT1 activation (luciferase activity) (STAT1): inhibited STAT1 activation
degree of growth inhibition versus duration of treatment (PC-3 cells; 10 mg/kg daily for 5, 10 or 20 days): direct proportional to the duration of treatment
tumor growth inhibition, 20 day course versus ten day course (PC-3 cells; 10 mg/kg daily, FIG. 6C): as effective at inhibiting tumor growth as a ten day course
PC-3 tumor growth (PC-3 cells; 10 mg/kg intraperitoneally daily): inhibited the growth of prostate adenocarcinoma cells
tumor burden (PC-3 cells; LY303511 10 mg/kg daily, Doxorubicin 10 mg/kg once on Day 1): decrease tumor burden
BrDu uptake (DNA synthesis, proliferation) (A549 cells [1]): concentration-dependent reduction
whole cell KI-67 levels (A549 cells [2]): significant decrease in whole cell KI-67 levels
